Entries after “also recorded” stand apart in the source; their conditions may differ. Where a SMILES comes first, the peptide text is derived from it. Bridges are numbered along the chain shown (N, C = ends). Roman numbers before positions name the chains, in order.
What was measured:
[1] = system: dermal vascular leak; assay: Reverse passive Arthus reaction, dermal vascular leak; format: in vivo, guinea pig (Hartley)
Procedure: Eighteen hours later both flanks of the animals were shaved and 6.25 or 12.5 µl of rabbit anti-BSA antiserum was injected intradermally (i.d.) at two sites, one on each flank. The animals were then injected i.v. with 1 ml of PBS containing BSA (1 mg/ml) and Evans Blue dye (2 mg/ml; Sigma; St. Louis, MO). Six hours later the animals were euthanized, the skin removed, and the level of induration determined as the diameter (mm) of the extravasation for each site measured on the ventral surface of the skin.

[2] = system: dengue virus; assay: Vascular leak in liver of mice injected with dengue virus; parameters: species or system mouse; conditions: 1 µg intraperitoneal; dengue virus i.v.; preliminary in vivo studies
[3] = system: HUVEC; assay: TNF-α-induced necrosis in HUVEC (Cell Death Detection ELISA, supernatant); format: cell-based, human; conditions: HUVEC pretreated 3 h with 6.25-50 µM peptide, TNF-α 100 ng/ml, overnight
Procedure: Apoptosis was measured in HUVEC using the Cell Death Detection ELISA^PLUS kit (Roche Diagnostics; Indianapolis, IN) according to the manufacturer's instructions. This assay is based on a quantitative sandwich-enzyme-immunoassay using mouse monoclonal antibodies directed against both DNA and histones, respectively. It allows the specific determination of mono- and oligonucleosomes in the cytoplasmic fraction of cell lysates (apoptosis) and in the supernatant of dying cells (necrosis). The apoptotic index (AI) was calculated as
where treatment refers to use of a known apoptosis- or necrosis-inducing agent (staurosporine, TNF-α).

[4] = system: systolic blood pressure; assay: SHR rat hypertension model (tail cuff); format: in vivo
Procedure: As part of a general pharmacological screen, MN10021 was evaluated in a rat model of hypertension by MDS-PanLabs (Bothell, WA). […] Blood pressure measurements were made by tail cuff at 1, 2, and 4 h post administration of test compounds. A decrease of ≥10% of the baseline systolic blood pressure is considered significant in this assay.

[5] = system: iNOS (inducible nitric oxide synthase) mRNA; assay: RT-PCR of iNOS mRNA in HUVEC; format: cell-based, human; conditions: 50 µM peptide, 3 h, 37°C, quiescent HUVEC, RT-PCR
Procedure: Cells were cultured with various concentrations of test materials, either with or without stimulus, for varying times. The cells were collected, washed and total RNA isolated using the RNeasy Mini Kit (Qiagen; Valencia, CA). Following isolation the RNA was treated with 7 units of DNase I according to the RNase-Free DNase Set (Qiagen; Valencia, CA) protocol. Using these procedures we usually obtained ∼50 µg of total RNA/10^7 cells. cDNA was prepared from the isolated mRNAs and RT-PCR performed on the target cytokines/chemokines/growth factors using appropriate primer pairs and a control primer pair for β-actin (all from R & D Systems; Minneapolis, MN). RT-PCR was generally performed for 30 cycles for β-actin and 35–45 cycles for iNOS and VEGF.

[6] = 100 mg/kg orally (gavage), groups of 3 SHR rats, tail cuff, vs 0 h value

CC(C)C[C@H](NC(=O)CNC(=O)CNC(=O)[C@H](CCC(=O)O)NC(=O)[C@H](CCCCN)NC(=O)[C@H](CC(C)C)NC(=O)[C@H](Cc1ccccc1)NC(=O)[C@H](CC(C)C)NC(=O)[C@H](CC(C)C)NC(=O)[C@H](CC(=O)O)NC(=O)[C@H](CC(C)C)NC(=O)CNC(=O)[C@H](CCCNC(=N)N)NC(=O)[C@H](CCCNC(=N)N)NC(=O)[C@H](CC(N)=O)NC(=O)[C@H](CCC(N)=O)NC(=O)[C@@H](N)CC(C)C)C(=O)N[C@@H](CSSC[C@H](NC(=O)[C@H](CC(C)C)NC(=O)CNC(=O)CNC(=O)[C@H](CCC(=O)O)NC(=O)[C@H](CCCCN)NC(=O)[C@H](CC(C)C)NC(=O)[C@H](Cc1ccccc1)NC(=O)[C@H](CC(C)C)NC(=O)[C@H](CC(C)C)NC(=O)[C@H](CC(=O)O)NC(=O)[C@H](CC(C)C)NC(=O)CNC(=O)[C@H](CCCNC(=N)N)NC(=O)[C@H](CCCNC(=N)N)NC(=O)[C@H](CC(N)=O)NC(=O)[C@H](CCC(N)=O)NC(=O)[C@@H](N)CC(C)C)C(=O)O)C(=O)O [MN10021] (I: H-LQNRRGLDLLFLKEGGLC-OH / II: H-LQNRRGLDLLFLKEGGLC-OH; disulfide I:18-II:18)
block of vascular leak, challenge 6.25 µl anti-BSA ([1]; 250 or 500 µg s.c. 18 h before challenge, Evans Blue extravasation diameter at 6 h): completely blocked
block of vascular leak, challenge 12.5 µl anti-BSA ([1]; only the highest dose (500 µg) s.c. 18 h before challenge, Evans Blue extravasation at 6 h): completely blocked
effect on vascular leak in the liver of dengue virus-injected mice [2]: inhibit the vascular leak
protection against TNF-α-induced necrosis [3]: significant protection; also recorded: block almost completely
decreases in blood pressure at the three time points (1, 2, 4 h) ([4]; 30 mg/kg orally, data not shown): 3–4%
decrease in blood pressure at 1 h [4, 6]: 12%
decrease in blood pressure at 2 h [4, 6]: 15%
decrease in blood pressure at 4 h [4, 6]: 13%
lowering of blood pressure within 1 h ([4]; orally-administered (abstract)): 10–15%
induction of mRNA for iNOS in HUVEC [5]: induces mRNA for iNOS

— article PMC3527569, “Anti-Inflammatory and Vasoprotective Activity of a Retroviral-Derived Peptide, Homologous to Human Endogenous Retroviruses: Endothelial Cell Effects” (PLoS ONE, 2012)
